Laboratory results taken from US5830920A, “Sulfuric acid esters of sugar alcohols” (Hoffmann-La Roche Inc., priority 1995, dated 1998).
One block for each substance: values may come before it.

Key:
[1] = system: rat smooth muscle cells; test: Antiproliferative activity in cell cultures (rat smooth muscle cells), relative to heparin; type: cell-based; conditions: 100 μg/ml, 48 h, heparin at same concentration = reference
Procedure: The antiproliferative activity of a substance is expressed as the ri value which is a comparative value to the corresponding activity of heparin and which was determined in cell cultures as follows: rat smooth muscle cells were applied to cell culture plates in a density of 8×10^3 cells/well, medium: DMEM (Dulbecco Modified Eagle Medium) with 10% FCS (fetal calf serum); cultivation at 37° C. and 5% CO2. After 4 hours, the number of adhered cells was determined and the substances to be tested (100 μg/ml, dissolved in H2 O) were added. […] Subsequently,the cells were incubated for 48 h. and thereafter the cell count was determined once more.
The inhibition i of the cell growth, that is, the reduction in the growth rate of the cells in per cent compared to the control, was calculated from these values. [formula] with the growth rate μ being calculated as [formula] in which Z is the number of cells and d is the time in days.
Finally, ri --the relative inhibitory activity--which expresses the activity of a substance (at 100 μg/ml) in comparison to the activity of heparin in the same concentration in the same experiment, was calculated [formula] Blood coagulation inhibition

[2] = target: T1, thrombin (Bos taurus, UniProt P00735); test: Inhibition of thrombin in the chromogenic substrate assay; type: biochemical; conditions: plasma, antithrombin III, substrate S-2238, 37° C., pH 8.4
T1 construct: purchased Roche Basle
Procedure: (§1) The blood coagulation-inhibiting activity was determined as follows:
(§2) The buffer solution used consisted of 50 mM Tris buffer, 180 mM NaCl, 7.5 mM EDTA Na2, 1% PEG 6000 and 0.02% Tween 80, pH 8.4. The assay solution consisted of 50 μl of buffer, 30 μl of antithombin III (1 U/ml, Kabi Diagnostica) and 20 μl of plasma which contained various concentrations of test compounds. 30 μl of sample solution and 20 μl of water with 180 μl of thrombin (1 U/ml, thrombin reagent, Roche Basle) were added to the test cuvette in the automatic analyzer.

[3] = target: factor Xa (Bos taurus, UniProt P00743); test: Inhibition of factor Xa in the chromogenic substrate assay; type: biochemical; conditions: plasma, antithrombin III, substrate S-2222, 37° C., pH 8.4
Procedure: [Worded in the source for another target; used here, by the source, with some conditions changed.] as §1, §2

[4] = system: neointima in rat carotids; test: In vivo assay for antiproliferative activity in damaged rat carotids (neointima after balloonisation); set-up: species or system rat (male Wistar Kyoto); conditions: 0.3 mg/kg/h i.v.
Procedure: In vivo assay for determining the antiproliferative activity of the compounds in accordance with the invention in damaged rat carotids.
The left carotids of male Wistar Kyoto rats (300-400 g) were, after narcosis, damaged with a 2F embolectomy catheter by pulling the catheter in the pumped-up state through the vessel three times. After wound management, the animals were kept in pairs with standard feed and water ad libidum.
The compounds were administered in concentrations of 0.3-1 mg/kg/h i.v. For this purpose, an osmotic minipump was implanted under the dorsal skin of the animals during the narcosis and was connected with the jugular vein. Thus, the compounds could be administered constantly during the entire test period of 14 days.
After 14 days, proliferative tissue (neointima) had formed, the size of which could be determined morphometrically on histological cross-sections.In order to do this, the rats were sacrificed and perfusion-fixed with glutaraldehyde.

Chain of factor Xa (P00743 234-492 limits assumed): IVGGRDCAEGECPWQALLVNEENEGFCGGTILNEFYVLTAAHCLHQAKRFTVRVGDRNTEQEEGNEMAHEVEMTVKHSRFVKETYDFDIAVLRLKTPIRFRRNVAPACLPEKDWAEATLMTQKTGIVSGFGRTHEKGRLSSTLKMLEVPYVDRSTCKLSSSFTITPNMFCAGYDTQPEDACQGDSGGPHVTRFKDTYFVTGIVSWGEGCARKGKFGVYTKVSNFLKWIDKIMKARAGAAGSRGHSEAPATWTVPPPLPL
Chain of factor Xa (P00743 41-180 limits assumed): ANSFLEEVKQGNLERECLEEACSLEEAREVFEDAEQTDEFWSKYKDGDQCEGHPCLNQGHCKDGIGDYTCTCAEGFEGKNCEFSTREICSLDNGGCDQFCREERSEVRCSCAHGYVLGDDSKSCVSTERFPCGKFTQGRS

Anticoagulant Activity IC50 Thrombin [2]: 1.9 µg/mL
Anticoagulant Activity IC50 Factor Xa [3]: 2.7 µg/mL
Substance: Heparin [reference compound]
Antiproliferative Activity ri (relative inhibitory activity compared to heparin) [1]: 1.0

Anticoagulant Activity IC50 Thrombin [2]: > 1000 µg/mL
Anticoagulant Activity IC50 Factor Xa [3]: > 1000 µg/mL
Substance: 1,6-bis-O-[6-[benzyl 2,6-didesoxy-2-[3-nitro-4-(2,3,4,5,6-penta-O-sulfo-D-glucit-1-ylamino)-benzoylamino]-3,4-di-O-sulfo-a-D-glucopyranosid-6-ylcarbamoyl]-naphthalen-2-yl]-2,3,4,5-tetra-O-sulfo-galactitol octadecasodium salt [Example 59]
Antiproliferative Activity ri (relative inhibitory activity compared to heparin) [1]: 1.8

Anticoagulant Activity IC50 Thrombin [2]: > 1000 µg/mL
Anticoagulant Activity IC50 Factor Xa [3]: > 1000 µg/mL
Substance: 2,3,4,5-tetra-O-sulfo-1,6-bis-O-[4-[4-(2,3,4,5-tetra-O-sulfo-D-arabinit-1- yloxy)-benzyl]-phenyl]-D-mannitol dodecasodium salt [Example 43]
Antiproliferative Activity ri (relative inhibitory activity compared to heparin) [1]: 1.3

Anticoagulant Activity IC50 Thrombin [2]: > 1000 µg/mL
Anticoagulant Activity IC50 Factor Xa [3]: > 1000 µg/mL
Substance: 1,6-bis-O-[4-[4-O-[4-[(E)-2-[methyl-(2,3,4,5,6-penta-O-sulfo-D-glucit-1-yl)-carbamoyl]-vinyl]-phenyl]-2,3-di-O-sulfo-D-threit-1-yloxy]-phenyl]-2,3,4,5-tetra-O-sulfo-galactitol octadecasodium salt [Example 52]
Antiproliferative Activity ri (relative inhibitory activity compared to heparin) [1]: 0.8

Anticoagulant Activity IC50 Thrombin [2]: > 1000 µg/mL
Anticoagulant Activity IC50 Factor Xa [3]: > 1000 µg/mL
Substance: 1,6-bis-O-[6-[(S)-2,3-bis-sulfooxy-propoxy]-3-(2,3,4,5,6-penta-O-sulfo-D-glucit 1-ylcarbamoyl)-naphthalen-2-yl]-2,3,4,5-tetra-O-sulfo-galactitol octadecasodium salt [Example 22]
Antiproliferative Activity ri (relative inhibitory activity compared to heparin) [1]: 2.1

Anticoagulant Activity IC50 Thrombin [2]: > 1000 µg/mL
Anticoagulant Activity IC50 Factor Xa [3]: > 1000 µg/mL
Substance: 1,6-bis-O-[4-[(E)-2-[benzyl 2,6-didesoxy-2-[4-(2,3,4,5,6-penta-O-sulfo-D-glucit-1-ylamino)-3-nitro-benzoyl-amino]-3,4-di-O-sulfo-a-D-glucopyranosid-6-ylcarbamoyl]-vinyl]-phenyl]-2,3,4,5-tetra-O-sulfo-galactitol octadecasodium salt [Example 61]
Antiproliferative Activity ri (relative inhibitory activity compared to heparin) [1]: 2.4

Anticoagulant Activity IC50 Thrombin [2]: > 1000 µg/mL
Anticoagulant Activity IC50 Factor Xa [3]: > 1000 µg/mL
Substance: 1,6-Bis-O-[6-(2,3,4,5,6-penta-O-sulfo-D-glucit-1-ylcarbamoyl)-naphthalen-2- yl]-2,3,4,5-tetra-O-sulfo-galactitol tetradecasodium salt [Example 16]
Antiproliferative Activity ri (relative inhibitory activity compared to heparin) [1]: 2.1

Anticoagulant Activity IC50 Thrombin [2]: > 1000 µg/mL
Anticoagulant Activity IC50 Factor Xa [3]: > 1000 µg/mL
Substance: 1,6-bis-O-[4-[4-O-[4-[(E)-2-(2,3,4,5,6-penta-O-sulfo-D-glucit-1-ylcarbamoyl)-vinyl]-phenyl]-2,3-di-O-sulfo-D-threit-1-yloxy]-phenyl]-2,3,4,5-tetra-O- sulfo-galactitol octadecasodium salt [Example 48]
Antiproliferative Activity ri (relative inhibitory activity compared to heparin) [1]: 2.7

Further lines, the substance ahead of its results:

Substance: 1,6-bis-O-[4-[2-[4-(2,3,4,5,6-penta-O-sulfo-D-glucit-1-ylcarbamoyl)-phenyl]-ethyl]-phenyl]-2,3,4,5-tetra-O-sulfo-galactitol tetradecasodium salt [Example 11]
Antiproliferative Activity ri (relative inhibitory activity compared to heparin) [1]: 2.2
Anticoagulant Activity IC50 Thrombin [2]: > 1000 µg/mL
Anticoagulant Activity IC50 Factor Xa [3]: > 1000 µg/mL

Substance: 1,6-didesoxy-2,3,4,5-tetra-O-sulfo-1,6-bis-[3-(2,3,4,5-tetra-O-sulfo-D-arabinit-1-yloxy)-naphthalen-2-ylcarbonylamino]-galactitol dodecasodium salt [Example 45]
Antiproliferative Activity ri (relative inhibitory activity compared to heparin) [1]: 1.4
Anticoagulant Activity IC50 Thrombin [2]: > 1000 µg/mL
Anticoagulant Activity IC50 Factor Xa [3]: > 1000 µg/mL

Substance: 1,6-bis-O-[3-(2,3,4,5-tetra-O-sulfo-D-arabinit-1-yloxy)-naphthalen-2-yl]-2,3,4,5-tetra-O-sulfo-galactitol dodecasodium salt [Example 40]
Antiproliferative Activity ri (relative inhibitory activity compared to heparin) [1]: 1.4
Anticoagulant Activity IC50 Thrombin [2]: > 1000 µg/mL
Anticoagulant Activity IC50 Factor Xa [3]: > 1000 µg/mL

Substance: 1,6-Bis-O-[4-[2-(2,3,4,5,6-penta-O-sulfo-D-glucit-1-ylcarbamoyl)-ethyl]-phenyl]-2,3,4,5-tetra-O-sulfo-galactitol tetradecasodium salt [Example 6]
Antiproliferative Activity ri (relative inhibitory activity compared to heparin) [1]: 0.7
Anticoagulant Activity IC50 Thrombin [2]: > 1000 µg/mL
Anticoagulant Activity IC50 Factor Xa [3]: > 1000 µg/mL
effect on neointima compared to concentrated heparin ([4]; 14 days, comparison with heparin): comparable effect to that of concentrated heparin
cross sectional area of the neointima in rat carotids 14 days after balloonisation ([4]; osmotic minipump): significantly reduced (p<0.01, t-test)

Substance: 1,6-bis-O-[3-(2,3,4,5,6-penta-O-sulfo-D-glucit-1-ylcarbamoyl)-naphthalen-2-yl]-2,3,4,5-tetra-O-sulfo-galactitol tetradecasodium salt [Example 14]
Antiproliferative Activity ri (relative inhibitory activity compared to heparin) [1]: 1.5
Anticoagulant Activity IC50 Thrombin [2]: > 1000 µg/mL
Anticoagulant Activity IC50 Factor Xa [3]: > 1000 µg/mL

Substance: 1,6-bis-O-[3-biphenyl-4-ylmethoxy-5-(2,3,4,5,6-penta-O-sulfo-D-glucit-1-ylcarbamoyl)-phenyl]-2,3,4,5-tetra-O-sulfo-galactitol tetradecasodium salt [Example 17]
Antiproliferative Activity ri (relative inhibitory activity compared to heparin) [1]: 1.5
Anticoagulant Activity IC50 Thrombin [2]: > 1000 µg/mL
Anticoagulant Activity IC50 Factor Xa [3]: > 1000 µg/mL

Substance: 1,6-bis-O-[4-[2-[benzyl-2,6-didesoxy-6-(2,3,4,5,6-penta-O-sulfo-D-gluconoylamino)-3,4-di-O-sulfo-a-D-glucopyranosid-2-ylcarbamoyl]-ethyl]-phenyl]-2,3,4,5-tetra-O-sulfo-galactitol octadecasodium salt [Example 58]
Antiproliferative Activity ri (relative inhibitory activity compared to heparin) [1]: 1.8
Anticoagulant Activity IC50 Thrombin [2]: > 1000 µg/mL
Anticoagulant Activity IC50 Factor Xa [3]: > 1000 µg/mL

Substance: 1,6-bis-O-[3-[benzyl 2,6-didesoxy-6-(2,3,4,5,6-penta-O-sulfo-D-gluconoylamino)-3,4-di-O-sulfo-a-D-glucopyranosid-2-ylcarbamoyl]-naphthalen-1-yl]-2,3,4,5-tetra-O-sulfo-galactitol octadecasodium salt [Example 56]
Antiproliferative Activity ri (relative inhibitory activity compared to heparin) [1]: 1.7
Anticoagulant Activity IC50 Thrombin [2]: > 1000 µg/mL
Anticoagulant Activity IC50 Factor Xa [3]: > 1000 µg/mL
